Experiments:
Assay type in all cases: cell-based, human
MCF-7 cells [1] = test: Intracellular GSH and GSSG, MCF-7
Procedure: The quantitative determination of glutathione and glutathione disulfide was performed using the enzymatic recycling method according to the protocol of Rahman. The cells were seeded at a density of 2 × 10^5 per well in a 6-well plate and cultured for 48 h. Then, the cells were treated with tested compounds 1, 4 and 7 at their respective ¼ and ½ IC50 values for MCF-7 and MDA-MB-231 cells. Additionally, controls with pure medium, AAPH (2,2′-Azobis(2-methylpropionamidine) dihydro-chloride, Sigma Aldrich, St. Louis, MO, USA) and ascorbic acid (Polish Chemical Reagents, Poland) were performed. The cells were incubated with compounds for another 24 h, then washed twice with 2 mL of cold, Ca^2+-/Mg^2+-free PBS (Biomed Lublin, Lublin, Poland). The cells were harvested using 1-mL accutase (Sigma Aldrich, St. Louis, MO, USA), and the wells were washed with 1 mL of cold growth medium. The cells were transferred to prechilled 2.0-mL Eppendorf tubes and centrifuged at 1000× g for 5 min at 4 °C. The supernatant was discarded, the pellets were resuspended in 1 mL of cold PBS, the number of cells was determined in each sample and the cellular suspension was centrifuged again. PBS was discarded, and the pellets were stored covered with 30-µL PBS at –70 °C. The following day, the cells were suspended in 0.5 mL of ice-cold extraction buffer (0.1% Triton-X (Polish Chemical Reagents, Gliwice, Poland) and 0.6% sulfosalicylic acid (Sigma Aldrich) in a potassium phosphate buffer with EDTA (Sigma Aldrich)) and sonicated in icy water for 3 min with vortexing every 30 s. The cells were frozen once again at −80 °C, defrosted on ice and frozen once again. Following the second freeze–thaw cycle, the cells were centrifuged at 1500× g for 5 min at 4 °C, and then, immediately, the supernatant was transferred to prechilled Eppendorf tubes. The samples were divided into two parts: one was used to measure GSH, and the other one was derivatized by an addition of 4 µL of 2-vinylpyridine (diluted 1:10 with phosphate buffer) (Sigma Aldrich, St. Louis, MO, USA) to determine the GSSG content.
GSH measurements included an addition of 20 µL of the tested sample, blank or GSH standard, 120 µL of the mixture of an equal volume of DTNB solution (2 mg dissolved in 3 mL of phosphate buffer, Sigma Aldrich) and glutathione reductase (10 U in 3 mL of phosphate buffer, Sigma Aldrich, St. Louis, MO, USA) and 30 s of incubation to allow the conversion of GSSG to GSH. The final step included the addition of 60 µL of β-NADPH (2 mg dissolved in 3 mL of phosphate buffer, Sigma Aldrich). The absorbance was read immediately at 415 nm in a microplate reader (Bio-Rad), and the measurements were taken every 30 s for 2 min (6 readings in total). The amount of GSH was calculated on the basis of the calibration curve prepared using GSH (Sigma Aldrich, St. Louis, MO, USA) at concentrations ranging from 0.040 to 2.6 nmol/mL.
The quantification of GSSG in the test samples was performed according to the same procedure as GSH. The samples treated with 2-VP were incubated for one hour at room temperature, and then, 20 µL of the tested sample was analyzed using the same reagents which were applied in the GSH measurements. The amount of GSSG was calculated on the basis of the calibration curve, prepared using GSSG (Sigma Aldrich) at concentrations of 0.040–2.6 nmol/mL. The results are presented as mean ± SD, n = 6–8 and expressed as nmol per […].

MCF-7 cells [2] = test: Cell cycle analysis (PI, flow cytometry), MCF-7; conditions: MCF-7, 24 h
Procedure: MCF-7 and MDA-MB-231 cells were seeded in 6-well plates at a density of 2 × 10^5 cells per well and cultured for 24 h under standard conditions (with 2 mL of the medium). Next, cells were exposed to the tested compounds at concentrations corresponding to IC50. After 24 h of treatment, control and treated cells were then collected (washed with cold PBS and treated with accutase), transferred to Eppendorf tubes and centrifuged (1100 rpm, 5 min, 5 °C). The supernatant was discarded, cold PBS was added (1 mL) and the cells were centrifuged (1200 rpm, 5 min). The solution was removed, and the cells were fixed in cold 70% ethanol at 4 °C. Prior to the analysis, the cells were centrifuged (3600 rpm, 5 min) and washed twice with PBS. The solution was discarded, the pellets were suspended in 200 µL of PBS and incubated with ribonuclease at 37 °C (25 µL, final concentration in a sample was 100 µg/mL) for 30 min and stained with propidine iodide (12.5 µL, final concentration in a sample was 50 µg/mL) in darkness at room temperature for additional 20 min. The final volume of the sample was 250 µL.
DNA content and the number of cells in individual cell cycle phases was measured by flow cytometry (CytoFlex, blue laser, 480 nm, Beckman-Coulter, Indianapolis, IN, USA). Cells (20,000) were analyzed from each sample. The percentage of cells in each cell cycle phase was calculated from live cells that were expressed as 100%. The data are presented as the mean ± SD of three independent experiments. The coefficients of variation for the assay were established (CV = 0.37–11.78%, depending on the cell population).

OCTs = test: Inhibition of [14C]choline uptake in MCF-7 cells (competitive inhibition assay); conditions: mean ± SD (n = 3)
Procedure: The following day, after removal of the culture medium, the cells were carefully washed with prewarmed HBSS (Hanks’ balanced salt solution) containing 125 mM NaCl, 4.8 mM KCl, 1.2 mM MgSO4, 1.2 mM KH2PO4, 1.3 mM CaCl2, 5.6 mM glucose and 25 mM HEPES (pH 7.4). […] Then, the cells were washed three times with ice-cold HBSS (500 μL) and were lysed with 250 μL of 0.1-M NaOH in the ice bath, and the lysate was mixed with 1.0 mL of an emulsifier safe cocktail (PerkinElmer, Waltham, MA, USA). The radioactivity was measured by liquid scintillation counting (MicroBeta^2 counter, PerkinElmer, Waltham, MA, USA). The studies were carried out with the use of at least three replicates from the same cell passage.

[3] = IC50 (Comp. 1 13, Comp. 4 430, Comp. 7 55 μmol/L)

IC50 (OCTs) [µM]	Compound	GSH (MCF-7 cells [1]; MCF-7, 1/2 × IC50, 24 h) [nmol/1 mln Cells]	GSH:GSSG Ratio (MCF-7 cells [1]; MCF-7, 1/2 × IC50, 24 h)	GSSG (MCF-7 cells [1]; MCF-7, 1/2 × IC50, 24 h) [nmol/1 mln Cells]	GSH (MCF-7 cells [1]; MCF-7, 1/4 × IC50, 24 h) [nmol/1 mln Cells]	GSH:GSSG Ratio (MCF-7 cells [1]; MCF-7, 1/4 × IC50, 24 h)	GSSG (MCF-7 cells [1]; MCF-7, 1/4 × IC50, 24 h) [nmol/1 mln Cells]	G0/G1 (MCF-7 cells [2]; [3]) [%]	G2/M (MCF-7 cells [2]; [3]) [%]	S (MCF-7 cells [2]; [3]) [%]	Sub G0/G1 (MCF-7 cells [2]; [3]) [%]	G0/G1 (MCF-7 cells [2]; IC50 (Comp. 1 13, Comp. 4 430, Comp. 7 55 µmol/L), listed as Comp. 1) [%]
1670 ± 8.5	CN(C)C(=N)N=C(N)NS(=O)(=O)c1ccccc1Br [Compound 4]	148.5 ± 4.8	24.0	6.2 ± 0.7	165.4 ± 9.6	19.2	8.6 ± 0.7	73.69 ± 0.26	8.21 ± 0.03	15.16 ± 0.54	2.98 ± 0.40	
6354 ± 12.9	CN(C)C(=N)N=C(N)NS(=O)(=O)c1ccccc1F [Compound 7]	169.0 ± 6.0	15.9	10.6 ± 0.4	166.8 ± 12.8	21.2	7.9 ± 0.9	56.48 ± 3.34	15.43 ± 0.93	10.34 ± 0.74	17.85 ± 2.08	
1050 ± 14.2	CN(C)C(=N)N=C(N)NS(=O)(=O)c1ccccc1Cl [Compound 1]	167.5 ± 5.1	22.6	7.4 ± 1.8	183.1 ± 8.9	20.1	9.1 ± 3.9	38.76 ± 0.80	17.54 ± 0.48	35.45 ± 0.23	8.28 ± 1.04	38.76 ± 0.80
